Measurements from patent US8466164B2.

Key:
SaOS-2 cells = experiment: MTT cell viability assay on SaOS-2; details: SaOS-2, MTT, control = 100%, mean ± SD; for CV (%) after 24 h (cellular viability with respect to control): 24 h treatment; for CV (%) after 48 h (cellular viability with respect to control): 48 h treatment, 25 μM
recombinant human Src = recombinant human Src (Homo sapiens, UniProt P12931); experiment: cell-free Src enzymatic assay; type: biochemical; details: calculated from ID50; triplicate, mean values; read-out: Ki toward recombinant human Src
recombinant human Src, sequence (P12931 whole entry): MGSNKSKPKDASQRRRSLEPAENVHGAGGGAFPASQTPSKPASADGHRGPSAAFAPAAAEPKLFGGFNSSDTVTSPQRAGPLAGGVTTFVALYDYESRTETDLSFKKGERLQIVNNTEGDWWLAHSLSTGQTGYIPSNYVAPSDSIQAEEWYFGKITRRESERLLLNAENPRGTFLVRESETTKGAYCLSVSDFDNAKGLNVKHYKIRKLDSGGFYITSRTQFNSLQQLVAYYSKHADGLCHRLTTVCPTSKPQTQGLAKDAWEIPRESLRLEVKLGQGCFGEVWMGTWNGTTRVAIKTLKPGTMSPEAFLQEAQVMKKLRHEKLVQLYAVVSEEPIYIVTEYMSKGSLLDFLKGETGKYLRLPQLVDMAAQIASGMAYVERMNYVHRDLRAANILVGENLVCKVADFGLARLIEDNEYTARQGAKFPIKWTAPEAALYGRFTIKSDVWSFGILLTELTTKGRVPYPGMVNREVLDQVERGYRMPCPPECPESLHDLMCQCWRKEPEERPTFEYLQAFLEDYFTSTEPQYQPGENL

melting point | Ki (recombinant human Src) | Compound | CV (%) after 24 h (cellular viability with respect to control) (SaOS-2 cells) | CV (%) after 48 h (cellular viability with respect to control) (SaOS-2 cells)
99 to 100 °C | – | CCSc1nc(NCCc2ccccc2)c2cnn(CC(Cl)c3ccccc3)c2n1 (centres unmarked) [S1-72] | 107.3 ± 3.5% | 22.2 ± 1.3%
122 to 123 °C | – | CSc1nc(NCCc2cccc(Cl)c2)c2cnn(CC(Cl)c3ccccc3)c2n1 (centres unmarked) [SI-58] | 80.6 ± 0.7% | 39.3 ± 2.0%
99 to 100 °C | – | CSc1nc(NCCc2ccccc2Cl)c2cnn(CC(Cl)c3ccccc3)c2n1 (centres unmarked) [SI-59] | 102.9 ± 1.3% | 100.5 ± 0.5%
99 to 100 °C | – | CSc1nc(NCCc2ccc(C)cc2)c2cnn(CC(Cl)c3ccccc3)c2n1 (centres unmarked) [SI-60] | 101.9 ± 1.9% | 96.3 ± 1.1%
60 to 61 °C | – | COc1ccc(CCNc2nc(SC)nc3c2cnn3CC(Cl)c2ccccc2)cc1 (centres unmarked) [SI-61] | 101.0 ± 3.0% | 49.8 ± 2.1%
152 to 153 °C | – | CSc1nc(NCc2ccccc2)c2cnn(CC(Cl)c3ccc(F)cc3)c2n1 (centres unmarked) [SI-65] | 62.7 ± 0.7% | 44.4 ± 2.5%
130 to 131 °C | – | CSc1nc(NCc2ccccc2)c2cnn(CC(Cl)c3ccc(Cl)cc3)c2n1 (centres unmarked) [SI-70] | 52.2 ± 2.4% | 24.4 ± 2.5%
127 to 129 °C | – | CSc1nc(NCCc2ccccc2)c2cnn(CC(Cl)c3ccc(Cl)cc3)c2n1 (centres unmarked) [SI-71] | 99.9 ± 0.9% | 89.4 ± 2.3%
136 to 137 °C | – | CSc1nc(NCc2ccc(F)cc2)c2cnn(CC(Cl)c3ccccc3)c2n1 (centres unmarked) [SI-84] | 102.1 ± 1.4% | 99.2 ± 1.0%
113 to 114 °C | – | CSc1nc(NCc2cccc(F)c2)c2cnn(CC(Cl)c3ccccc3)c2n1 (centres unmarked) [SI-85] | 106.2 ± 3.0% | 71.3 ± 2.1%
126 to 127 °C | – | CSc1nc(NCc2ccc(Cl)cc2)c2cnn(CC(Cl)c3ccccc3)c2n1 (centres unmarked) [SI-87] | 113.4 ± 1.5% | 54.9 ± 2.4%
158 to 159 °C | – | CSc1nc(NCc2ccccc2Cl)c2cnn(CC(Cl)c3ccccc3)c2n1 (centres unmarked) [SI-88] | 101.7 ± 0.9% | 102.1 ± 1.2%
– | 1800 nM | CSc1nc(Nc2cccc(Br)c2)c2cnn(CC(Cl)c3ccccc3)c2n1 (centres unmarked) [SI-91] | 100.1 ± 1.1% | 84.7 ± 0.3%
– | 500 nM | CCSc1nc(Nc2cccc(Cl)c2)c2cnn(CC(Cl)c3ccccc3)c2n1 (centres unmarked) [SI-96] | 76.5 ± 1.9% | 44.3 ± 1.8%

Further lines, the compound ahead of its results:

Compound | melting point | Ki (recombinant human Src) | CV (%) after 24 h (cellular viability with respect to control) (SaOS-2 cells) | CV (%) after 48 h (cellular viability with respect to control) (SaOS-2 cells)
Clc1cccc(Nc2ncnc3c2cnn3CC(Cl)c2ccccc2)c1 (centres unmarked) [S-17] | – | – | 104.1 ±0.4% | 101.3 ± 1.5%
CSc1nc(NCCc2cccc(F)c2)c2cnn(CC(Cl)c3ccccc3)c2n1 (centres unmarked) [SI-56] | – | – | 101.1 ± 1.1% | 100.8 ± 2.1%
CSc1nc(NCCc2ccc(Cl)cc2)c2cnn(CC(Cl)c3ccccc3)c2n1 (centres unmarked) [SI-57] | – | – | 85.2 ± 0.7% | 75.4 ± 1.3%
CSc1nc(NCc2ccccc2F)c2cnn(CC(Cl)c3ccccc3)c2n1 (centres unmarked) [SI-86] | – | – | 104.1 ± 1.3% | 99.7 ± 0.4%
CSc1nc(Nc2cccc(F)c2)c2cnn(CC(Cl)c3ccccc3)c2n1 (centres unmarked) [SI-90] | – | – | 94.8 ± 2.7% | 84.3 ± 1.5%
CCCSc1nc(Nc2cccc(Cl)c2)c2cnn(CC(Cl)c3ccccc3)c2n1 (centres unmarked) [SI-101] | – | – | 77.8 ± 3.0% | 6.4 ± 1.9%
CSc1nc(Nc2ccccc2)c2cnn(CC(Cl)c3ccccc3)c2n1 (centres unmarked) [SI-118] | – | – | 100.1 ± 1.2% | 94.4 ± 0.7%
CSc1nc(Nc2cccc(Br)c2)c2cnn(CC(Cl)c3ccc(F)cc3)c2n1 (centres unmarked) [SI-128] | – | – | 63.1 ± 1.1% | 55.4 ± 2.0%
Clc1cccc(Nc2nc(SC3CCCCC3)nc3c2cnn3CC(Cl)c2ccccc2)c1 (centres unmarked) [SI-153] | – | 700 nM | – | –
